27 molecules from patent US8815891B2, “Tricyclic derivative or pharmaceutically acceptable salts thereof, preparation method thereof, and pharmaceutical composition containing the same” (Je Il Pharmaceutical Co., Ltd., priority 2008, dated 2014) can be followed below.

Experiment [1] deals with PARP-1 enzyme (Homo sapiens (Human), UniProt P09874). In words: Poly(ADP-ribose)polymerase [PARP-1] enzyme inhibitory activity (Trevigen PARP Assay kit). The experiment is classed as biochemical. The settings on record: read-out: PARP-1 Inhibitory activity IC50. The protocol:
The activity of the compounds according to the present invention to inhibit the PARP-1 enzyme was examined using a PARP Assay kit (4671-096-K) purchased from Trevigen. The assay was performed following a modified previously reported method by Lee et al [Methods Find, Exp. Clin. Pharmacol., 27, 617-622, 2005].
Histone was coated on 384-well plate, which is a small volume PS plate (784101) of Greiner Bio-One, and left at 25° C. for 2 hours. After that, the plate was rinsed four times with PBS (7.5 mM Na2HPO4, 2.5 mM NaH2PO4, 145 mM NaCl, pH 7.4), and in order to prevent non-specific reaction, the Strep-diluent (provided from kit of Trevigen) was added and left at 25° C. for one hour. After one hour, the plate was again rinsed with PBS four times, and the compounds of the Examples in various concentrations were put into reactant containing PARP-1 enzyme (0.12 unit/well), 2×PARP cocktail (1.95 mM NAD^+, 50 uM biotinylated NAD^+, and activated DNA in 50 mM Tris pH 8.0, 25 mM MgCl2) and allowed to react at 25° C. for 30 minutes. After 30 minutes, each well was rinsed with PBS four times, and in order to measure the amount of rybosylation by the PARP enzyme, strepavidin-linked peroxidase (Strep-HRP, 1:1000 diluted) was added and allowed to react at 37° C. for 30 minutes. The plate was rinsed with PBS four times, and TACS-Sapphire substrate was put and allowed to react at 25° C. for 10 minutes so that color reaction occurred. Finally, the reaction was terminated by the addition of 0.2 N HCl. The amount of histone ribosylation formed by PARP-1 enzyme was quantified at 450 nm using Wallac EnVision™ (PerkinElmer Oy, Turku, Finland).

In experiment [2] the target is PARP-1 enzyme (Cricetulus griseus (Chinese hamster) (Cricetulus barabensis griseus), UniProt Q9R152). In words: Intracellular PARP inhibitory activity (NAD(P)H released by MMS-treated CHO-K1 cells). It is filed as cell-based. As for the experimental part: In order to verify the ability of the compounds of the present invention to inhibit the PARP-1 enzyme activity, the amount of NAD(P)H accumulated on cell culture medium was measured.
The Chinese hamster ovary cells (CHO-K1) were cultured in RPMI1640 culture medium containing 10% fetal bovine serum (FBS). The cultured CHO-K1 cells were seeded into 96 well plate by 2.9×10^3 cells/well, and cultured for 16 hours under culture condition of 37° C., 5% CO2. After the culture, the cells were treated with the compounds of the Examples at varying concentrations, and cultured at 37° C. for 2 hours. […] The amount of […] released to the culture medium 3, 4, 5 hours after the treatment with MMS was quantified at 450 nm using Wallac EnVision™ (PerkinElmer Oy, Turku, Finland). The transference numbers of the compounds at varying concentrations according to the present invention are the average values obtained from four wells, and the results were calculated using regression analysis.
The Chinese hamster ovary cells (CHO-K1) were treated with the compounds at varying concentration according to the present invention, and the amount of NAD(P)H released into the culture medium 4 hours after the MMS treatment was quantified.

The mark [3] stands for this setting: PARP-1 enzyme, histone ribosylation, 450 nm.

Where a name gives a salt, the structure may show the parent alone. Read-outs that look alike come from different tables or passages of the source. Some results are limits rather than exact numbers.

Sequence of PARP-1 enzyme (Homo sapiens (Human), UniProt P09874) (P09874 whole entry): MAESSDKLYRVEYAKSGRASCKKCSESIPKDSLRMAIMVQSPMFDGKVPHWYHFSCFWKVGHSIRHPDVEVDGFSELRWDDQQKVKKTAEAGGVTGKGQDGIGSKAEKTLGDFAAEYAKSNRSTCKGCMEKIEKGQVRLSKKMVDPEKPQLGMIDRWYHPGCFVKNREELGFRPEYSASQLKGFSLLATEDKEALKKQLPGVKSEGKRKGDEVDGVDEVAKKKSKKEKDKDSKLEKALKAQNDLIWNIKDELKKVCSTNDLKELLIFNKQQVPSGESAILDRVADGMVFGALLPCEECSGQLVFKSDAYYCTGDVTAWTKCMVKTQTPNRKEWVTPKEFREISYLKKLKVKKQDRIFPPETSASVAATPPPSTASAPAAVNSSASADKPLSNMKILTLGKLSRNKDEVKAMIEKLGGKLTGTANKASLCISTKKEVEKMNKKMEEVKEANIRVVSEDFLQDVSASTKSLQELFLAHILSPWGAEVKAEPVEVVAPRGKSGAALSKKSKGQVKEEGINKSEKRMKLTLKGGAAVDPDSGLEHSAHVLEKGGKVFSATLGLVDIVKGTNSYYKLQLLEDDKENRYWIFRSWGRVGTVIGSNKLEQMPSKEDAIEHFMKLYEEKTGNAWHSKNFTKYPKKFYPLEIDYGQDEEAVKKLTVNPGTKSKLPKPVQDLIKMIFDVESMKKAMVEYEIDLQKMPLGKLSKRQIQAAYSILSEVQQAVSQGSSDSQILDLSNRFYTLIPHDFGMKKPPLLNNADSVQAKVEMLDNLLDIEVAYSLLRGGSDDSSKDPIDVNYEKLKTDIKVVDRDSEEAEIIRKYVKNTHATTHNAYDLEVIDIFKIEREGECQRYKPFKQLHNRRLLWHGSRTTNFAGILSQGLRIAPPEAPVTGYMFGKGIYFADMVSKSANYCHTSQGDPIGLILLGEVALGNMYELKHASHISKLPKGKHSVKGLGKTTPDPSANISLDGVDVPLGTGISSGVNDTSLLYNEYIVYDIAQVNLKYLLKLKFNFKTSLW
Sequence of PARP-1 enzyme (Cricetulus griseus (Chinese hamster) (Cricetulus barabensis griseus), UniProt Q9R152) (Q9R152 whole entry): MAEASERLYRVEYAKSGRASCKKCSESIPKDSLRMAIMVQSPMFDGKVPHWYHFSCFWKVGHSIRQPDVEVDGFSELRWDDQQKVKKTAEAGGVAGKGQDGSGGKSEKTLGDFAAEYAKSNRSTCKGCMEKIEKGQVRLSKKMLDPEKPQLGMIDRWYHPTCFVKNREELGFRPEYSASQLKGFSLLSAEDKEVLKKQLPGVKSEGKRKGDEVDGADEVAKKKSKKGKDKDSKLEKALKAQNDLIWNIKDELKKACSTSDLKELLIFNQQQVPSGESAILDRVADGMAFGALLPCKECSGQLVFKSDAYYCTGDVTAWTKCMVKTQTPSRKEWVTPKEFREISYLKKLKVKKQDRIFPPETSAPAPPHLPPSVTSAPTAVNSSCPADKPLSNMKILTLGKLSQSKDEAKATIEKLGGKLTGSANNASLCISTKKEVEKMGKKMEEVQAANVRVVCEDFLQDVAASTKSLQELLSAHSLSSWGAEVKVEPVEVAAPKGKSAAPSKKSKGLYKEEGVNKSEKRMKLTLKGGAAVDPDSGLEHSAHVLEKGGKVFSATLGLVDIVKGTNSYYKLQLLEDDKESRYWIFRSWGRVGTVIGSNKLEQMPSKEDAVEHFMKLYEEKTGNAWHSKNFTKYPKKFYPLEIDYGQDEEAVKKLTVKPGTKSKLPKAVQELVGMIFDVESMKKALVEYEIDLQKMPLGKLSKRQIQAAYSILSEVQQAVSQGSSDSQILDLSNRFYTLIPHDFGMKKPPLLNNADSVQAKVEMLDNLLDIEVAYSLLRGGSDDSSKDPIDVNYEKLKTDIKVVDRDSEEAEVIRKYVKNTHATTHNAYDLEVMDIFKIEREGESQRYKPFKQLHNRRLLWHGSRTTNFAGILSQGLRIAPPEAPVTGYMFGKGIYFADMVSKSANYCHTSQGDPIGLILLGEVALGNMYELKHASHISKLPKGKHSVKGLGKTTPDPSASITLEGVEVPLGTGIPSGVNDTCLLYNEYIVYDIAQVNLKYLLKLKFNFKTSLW

Regarding `O=c1[nH]c2ccc(OCCN3CCCCC3)cc2c2c1CCCN2` [Example 17, 9-[2-(Piperidine-1yl)ethoxy]-1,2,3,4-tetrahydrobenzo[h][1,6]naphthyridine-5(6H)-one dihydrochloride], the half-inhibitory concentration (IC50) at PARP-1 enzyme [1] (setting [3]) is below 1 µM; at PARP-1 enzyme [1] it was 0.46 µM; on PARP-1 enzyme [2], 1.63 µM.

On to `COCCOc1ccc2[nH]c(=O)c3c(c2c1)NCCC3` [Example 18, 9-(2-Methoxyethoxy)-1,2,3,4-tetrahydrobenzo[h][1,6]naphthyridine-5(6H)-one hydrochloride], for which the IC50 is 1.52 µM on PARP-1 enzyme [1] (setting [3]) and 3.71 µM at PARP-1 enzyme [2].

Turning to `CCOc1ccc2[nH]c(=O)c3c(c2c1)NCCC3` [Example 20, 9-Ethoxy-1,2,3,4-tetrahydrobenzo[h][1,6]naphthyridine-5(6H)-one hydrochloride], the figures for the IC50 on PARP-1 enzyme [1] (setting [3]) and at PARP-1 enzyme [2] were 1.54 µM and 1.3 µM, respectively.

On to `CN(C)CCc1ccc2c3c(c(=O)[nH]c2c1)CCCN3` [Example 32, 8-[2-(Dimethylamino)ethyl]-1,2,3,4-tetrahydrobenzo[h][1,6]naphthyridine-5(6H)-one dihydrochloride], for which the half-inhibitory concentration (IC50) on PARP-1 enzyme [1] (setting [3]) is below 1 µM; at PARP-1 enzyme [1], 0.23 µM; on PARP-1 enzyme [2] it was 3.16 µM.

Turning to `CN(C)c1ccc2c3c(c(=O)[nH]c2c1)CCCN3` [Example 37, 8-(Dimethylamino)-1,2,3,4-tetrahydrobenzo[h][1,6]naphthyridine-5(6H)-one hydrochloride], the half-inhibitory concentration (IC50) on PARP-1 enzyme [1] (setting [3]) was above 4 µM; at PARP-1 enzyme [2] (CHO-K1 cells, NAD(P)H released 4 hours after MMS treatment, read-out: PARP-1 Inhibitory activity IC50), 4.86 µM.

For `CC(c1ccc2c3c(c(=O)[nH]c2c1)CCCN3)N(C)C` (stereo not shown) [Example 38, 8-[1-(Dimethylamino)ethyl]-1,2,3,4-tetrahydrobenzo[h][1,6]naphthyridine-5(6H)-one dihydrochloride], the concentration for half-maximal inhibition (IC50) is below 1 µM at PARP-1 enzyme [1] (setting [3]), 0.05 µM on PARP-1 enzyme [1] and 0.14 µM at PARP-1 enzyme [2].

For `CN(C)Cc1ccc2c3c(c(=O)[nH]c2c1)CCCN3` [Example 41, 8-[(Dimethylamino)methyl]-1,2,3,4-tetrahydrobenzo[h][1,6]naphthyridine-5(6H)-one dihydrochloride], the half-inhibitory concentration (IC50) was 0.04 µM on PARP-1 enzyme [1] and 0.05 µM on PARP-1 enzyme [2].

With `CCNCc1ccc2c3c(c(=O)[nH]c2c1)CCCN3` [Example 43, 8-[(Ethylamino)methyl]-1,2,3,4-tetrahydrobenzo[h][1,6]naphthyridine-5(6H)-one dihydrochloride], the IC50 on PARP-1 enzyme [1] stood at 0.16 µM; on PARP-1 enzyme [2], 1.77 µM.

Turning to `O=c1[nH]c2cc(CN3CCCC3)ccc2c2c1CCCN2` [Example 44, 8-(Pyrrolidine-1-ylmethyl)-1,2,3,4-tetrahydrobenzo[h][1,6]naphthyridine-5(6H)-one dihydrochloride], the IC50 at PARP-1 enzyme [1] (dihydrochloride) came out at 0.06 µM; on PARP-1 enzyme [2], 0.34 µM.

As for `CCN(C)Cc1ccc2c3c(c(=O)[nH]c2c1)CCCN3` [Example 47, 8-{[Ethyl(methyl)amino]methyl}-1,2,3,4-tetrahydrobenzo[h][1,6]naphthyridine-5(6H)-one dihydrochloride], the IC50 at PARP-1 enzyme [1] was 0.07 µM; on PARP-1 enzyme [2] it was 0.25 µM.

`CCN(CC)Cc1cc(OC)c2c3c(c(=O)[nH]c2c1)CCCN3` [Example 86, 8-[(Diethylamino)methyl]-10-methoxy-1,2,3,4-tetrahydrobenzo[h][1,6]naphthyridine-5(6H)-one dihydrochloride]: the IC50 at PARP-1 enzyme [1] is 0.11 µM.

In the case of `COc1cc(CNC(C)C)cc2[nH]c(=O)c3c(c12)NCCC3` [Example 88, 8-[(Isopropylamino)methyl]-10-methoxy-1,2,3,4-tetrahydrobenzo[h][1,6]naphthyridine-5 (6H)-one dihydrochloride], the half-inhibitory concentration (IC50) on PARP-1 enzyme [1] came to 0.11 µM.

As to `COc1cc(CNC2CCCC2)cc2[nH]c(=O)c3c(c12)NCCC3` [Example 89, 8-[(Cyclopentylamino)methyl]-10-methoxy-1,2,3,4-tetrahydrobenzo[h][1,6]naphthyridine-5(6H)-one dihydrochloride], the IC50 on PARP-1 enzyme [1] was determined as 0.27 µM.

On to `COc1cc(CN2CC(C)OC(C)C2)cc2[nH]c(=O)c3c(c12)NCCC3` (stereo not shown) [Example 90, 8-[(2,6-Dimethylmorpholino)methyl]-10-methoxy-1,2,3,4-tetrahydrobenzo[h][1,6]naphthyridine-5(6H)-one dihydrochloride], for which the IC50 on PARP-1 enzyme [1] turned out to be 0.78 µM.

For `COc1cc(CN(C)C2CCCC2)cc2[nH]c(=O)c3c(c12)NCCC3` [Example 92, 8-{[Cyclopentyl(methyl)amino]methyl}-10-methoxy-1,2,3,4-tetrahydrobenzo[h][1,6]naphthyridine-5(6H)-one dihydrochloride], the IC50 on PARP-1 enzyme [1] is 0.19 µM.

For the molecule `COc1cc(CN(C)C(C)C)cc2[nH]c(=O)c3c(c12)NCCC3` [Example 93, 8-{[Isopropyl(methyl)amino]methyl}-10-methoxy-1,2,3,4-tetrahydrobenzo[h][1,6]naphthyridine-5(6H)-one dihydrochloride], the IC50 at PARP-1 enzyme [1] came to 0.14 µM.

Turning to `COc1cc(CN(C)CCF)cc2[nH]c(=O)c3c(c12)NCCC3` [Example 94, 8-{[(2-Fluoroethyl)(methyl)amino]methyl}-10-methoxy-1,2,3,4-tetrahydrobenzo[h][1,6]naphthyridine-5(6H)-one dihydrochloride], on PARP-1 enzyme [1], the concentration for half-maximal inhibition (IC50) turned out to be 0.17 µM.

Turning to `O=c1[nH]c2cc(Cc3nnn[nH]3)ccc2c2c1CCCN2` [Example 95, 8-[(1H-tetrazole-5-yl)methyl]-1,2,3,4-tetrahydrobenzo[h][1,6]naphthyridine-5(6H)-one hydrochloride], the 50% inhibitory concentration (IC50) on PARP-1 enzyme [1] came out at 0.49 µM.

Consider `COc1cc(CNN2CCOCC2)cc2[nH]c(=O)c3c(c12)NCCC3` [Example 96, 10-Methoxy-8-[(morpholinoamino)methyl]-1,2,3,4-tetrahydrobenzo[h][1,6]naphthyridine-5(6H)-one trihydrochloride], for which the half-inhibitory concentration (IC50) on PARP-1 enzyme [1] amounted to 0.77 µM.

As to `COc1cc(CN(C)N2CCOCC2)cc2[nH]c(=O)c3c(c12)NCCC3` [Example 97, 10-Methoxy-8-{[methyl(morpholino)amino]methyl}-1,2,3,4-tetrahydrobenzo[h][1,6]naphthyridine-5(6H)-one trihydrochloride], the 50% inhibitory concentration (IC50) on PARP-1 enzyme [1] turned out to be 0.9 µM.

On to `CCOc1cc(CN(C)C)cc2[nH]c(=O)c3c(c12)NCCC3` [Example 100, 8-[(Dimethylamino)methyl]-10-etoxy-1,2,3,4-tetrahydrobenzo[h][1,6]naphthyridine-5(6H)-one dihydrochloride], for which, on PARP-1 enzyme [2], the IC50 turned out to be 0.06 µM.

Consider `CCOc1cc(CN2CCCCC2)cc2[nH]c(=O)c3c(c12)NCCC3` [Example 102, 10-Ethoxy-8-(piperidine-1-ylmethyl)-1,2,3,4-tetrahydrobenzo[h][1,6]naphthyridine-5(6H)-one dihydrochloride], for which the IC50 on PARP-1 enzyme [1] came to 0.18 µM.

`COc1cc(CO)cc2[nH]c(=O)c3c(c12)NCCC3` [Example 105, 8-(Hydroxymethyl)-10-methoxy-1,2,3,4-tetrahydrobenzo[h][1,6]naphthyridine-5(6H)-one hydrochloride]: the 50% inhibitory concentration (IC50) on PARP-1 enzyme [1] (setting [3]) turned out to be 0.19 µM.

Regarding `COc1cc(CNCCN2CCOCC2)cc2[nH]c(=O)c3c(c12)NCCC3` [Example 107, 10-Methoxy-8-[(2-morpholinoethylamino)methyl)-1,2,3,4-tetrahydrobenzo[h][1,6]naphthyridine-5(6H)-one trihydrochloride], the IC50 at PARP-1 enzyme [1] came to 0.07 µM.

As for `NCc1ccc2c3c(c(=O)[nH]c2c1)CCCN3` [Example 112, 8-(Aminomethyl)-1,2,3,4-tetrahydrobenzo[h][1,6]naphthyridine-5 (6H)-one dihydrochloride], the IC50 on PARP-1 enzyme [1] is 0.17 µM.

For the molecule `COc1cc(CN(C)C2CCOCC2)cc2[nH]c(=O)c3c(c12)NCCC3` [Example 115, 10-Methoxy-8-{[methyl(tetrahydro-2H-pyran-4-yl)amino]methyl}-1,2,3,4-tetrahydrobenzo[h][1,6]naphthyridine-5(6H)-one dihydrochloride], at PARP-1 enzyme [1], the IC50 turned out to be 0.41 µM.

As to `COCCOc1cc(CN(C)C)cc2[nH]c(=O)c3c(c12)NCCC3` [Example 116, 8-[(Dimethylamino)methyl]-10-(2-methoxyetoxy)-1,2,3,4-tetrahydrobenzo[h][1,6]naphthyridine-5(6H)-one dihydrochloride], the IC50 at PARP-1 enzyme [1] (setting [3]) was found to be 0.18 µM.

As a reminder, the IC50 is the concentration needed to halve the response being measured.
